Reference: a compilation of properties of binary mixtures (doi:10.1021/acs.jced.1c00111)

Assay: xn = mol fraction of the nth substance listed
Conditions: 100 kPa

CC[NH+](C)CC.CS(=O)(=O)[O-] + O
viscosity [mPa·s]
Conditions	298.15 K	303.15 K	308.15 K	313.15 K	318.15 K	323.15 K	328.15 K	333.15 K	338.15 K
x1 = 0.0155	1.28	1.15	–	0.957	0.876	0.806	0.751	0.693	0.643
x1 = 0.0356	2.02	1.84	1.64	1.47	1.34	1.22	1.13	1.04	0.953
x1 = 0.0571	2.57	2.27	2	–	1.61	1.45	1.31	1.2	–
x1 = 0.0757	3.43	2.99	2.64	2.34	2.09	1.87	1.68	1.53	1.39
x1 = 0.0967	–	–	3.45	3.05	2.7	2.42	2.17	–	1.79
x1 = 0.1234	5.96	5.09	4.39	3.82	3.35	2.97	2.64	2.36	2.12
x1 = 0.1582	8.21	6.94	5.93	5.13	–	3.92	–	3.08	2.75
x1 = 0.206	11.6	9.76	8.3	7.11	6.12	5.3	–	4.03	3.55
x1 = 0.3246	20	–	13.9	–	10.1	8.94	7.81	–	–
x1 = 0.4263	–	25.9	22	–	15.6	13.2	11.5	9.9	–
x1 = 0.5018	42.1	34	–	22.8	19.4	16.5	–	–	–
x1 = 0.5783	52.8	42.1	–	28.3	23.6	20	17	14.5	–
x1 = 0.6771	–	–	44.2	36	29.8	24.8	21.1	18.1	–
x1 = 0.7782	90.5	70.3	–	44.9	36.5	30	–	22.2	18.7
